Laboratory results taken from the supplement of paper PMC10307832.

Columns and labels:
Assay in all cases: relative viability (nuclei count vs DMSO), 5 days (fraction); higher = more cells survive
[1] = compound: C1COCCN1C2=NC(=NC3=C2OC4=C3C=CC=N4)C5=CC(=CC=C5)NC(=O)C6=CN=C(C=C6)N + CC(C)C[C@H](NC(=O)[C@H](Cc1ccccc1)NC(=O)c1cnccn1)B(O)O [Bortezomib] (partner 0.002 µM)
How it was run: (§1)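 Lung cancer cell lines in 1536-well plates got either a single drug or a fixed anchor-drug dose together with five library-drug doses (not always all listed) in √10 steps, by pin tool, on the day after seeding. Nuclei were counted after 5 days, and relative viability is the treated-to-vehicle ratio of nuclei counts. Values are medians of duplicate plates.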

[2] = compound: C1COCCN1C2=NC(=NC3=C2OC4=C3C=CC=N4)C5=CC(=CC=C5)NC(=O)C6=CN=C(C=C6)N + Cc1cc(Nc2cc(N3CCN(C)CC3)nc(Sc3ccc(NC(=O)C4CC4)cc3)n2)n[nH]1 [Tozasertib] (partner 0.1 µM)
How it was run: as §1

[3] = compound: CN1CCC(CNc2ccc3ncc(-c4cccc(OC(F)(F)F)c4)n3n2)CC1 [SGI-1776] + N=C(N)NC(=N)NCCc1ccccc1 [Phenformin] (partner 250 µM)
How it was run: as §1

[4] = compound: CN1CCC(CNc2ccc3ncc(-c4cccc(OC(F)(F)F)c4)n3n2)CC1 [SGI-1776] + Nc1ncn([C@H]2C[C@H](O)[C@@H](CO)O2)c(=O)n1 [Decitabine] (partner 2 µM)
How it was run: as §1

| Cell Line | relative viability ([1]; first compound 0.02 µM) | relative viability ([1]; first compound 0.06325 µM) | relative viability ([1]; first compound 0.2 µM) | relative viability ([1]; first compound 0.6325 µM) | relative viability ([1]; first compound 2 µM) | relative viability ([2]; first compound 0.02 µM) | relative viability ([2]; first compound 0.06325 µM) | relative viability ([2]; first compound 0.2 µM) | relative viability ([2]; first compound 0.6325 µM) | relative viability ([2]; first compound 2 µM) | relative viability ([3]; first compound 0.08 µM) | relative viability ([3]; first compound 0.8 µM) | relative viability ([3]; first compound 2.53 µM) | relative viability ([3]; first compound 8 µM) | relative viability ([4]; first compound 0.08 µM) | relative viability ([4]; first compound 0.8 µM) | relative viability ([4]; first compound 2.53 µM) | relative viability ([4]; first compound 8 µM) |
| --- | --- | --- | --- | --- | --- | --- | --- | --- | --- | --- | --- | --- | --- | --- | --- | --- | --- | --- |
| LOU-NH91 | 0.511 | 0.474 | 0.481 | 0.489 | 0.461 | 0.591 | 0.738 | 0.649 | 0.652 | 0.465 | 0.754 | 0.733 | 0.716 | 0.565 | 0.853 | 0.811 | 0.799 | 0.705 |
| LU99A | 1.12 | 1.17 | 1.07 | 0.748 | 0.497 | 0.277 | 0.276 | 0.231 | 0.21 | 0.173 | 0.816 | 0.712 | 0.915 | 0.783 | 0.859 | 0.872 | 0.94 | 0.876 |
| LXF-289 | 1.1 | 1.11 | 0.996 | 0.997 | 0.409 | 0.177 | 0.181 | 0.156 | 0.145 | 0.119 | 0.54 | 0.534 | 0.496 | 0.486 | 0.384 | 0.366 | 0.369 | 0.326 |
| NCI-H23 | 1.15 | 1.44 | 1.15 | 0.899 | 0.446 | 0.329 |  | 0.185 | 0.615 | 0.263 | 0.77 | 0.702 | 0.752 | 0.72 | 0.326 | 0.323 | 0.35 | 0.305 |
| NCI-H322M | 1.2 | 1.25 | 1.25 | 1.24 | 0.965 | 0.535 | 0.49 | 0.471 | 0.401 | 0.338 | 0.875 | 0.846 | 0.786 | 0.552 | 0.724 | 0.753 | 0.65 | 0.658 |
| NCI-H441 | 0.342 | 0.638 | 0.565 | 0.648 | 0.274 | 0.609 | 0.496 | 0.416 | 0.401 | 0.299 | 0.759 | 0.769 | 0.82 | 0.663 | 0.26 | 0.26 | 0.236 | 0.22 |
| NCI-H460 | 1.45 | 1.13 | 1.27 | 1.02 | 0.125 | 0.465 | 0.509 | 0.209 | 0.392 | 0.0489 | 0.502 | 0.471 | 0.477 | 0.361 | 0.476 | 0.61 | 0.49 | 0.494 |
| NCI-H520 | 0.637 | 0.641 | 0.465 | 0.529 | 0.298 | 0.431 | 0.437 | 0.413 | 0.479 | 0.327 | 0.687 | 0.597 | 0.53 | 0.316 | 0.46 | 0.523 | 0.511 | 0.414 |
| NCI-H596 | 0.9 | 1.21 | 0.963 | 1 | 0.684 | 0.85 | 0.932 | 0.874 | 0.761 | 0.661 | 0.724 | 0.688 | 0.701 | 0.704 | 1.02 | 1.05 | 1.15 | 0.997 |
| NCI-H647 | 1.02 | 1.47 | 0.983 | 0.862 | 0.402 | 0.155 | 0.292 | 0.252 | 0.137 | 0.145 | 0.499 | 0.499 | 0.47 | 0.151 | 0.409 | 0.392 | 0.44 | 0.339 |
| NCI-H650 | 0.773 | 0.906 | 0.75 | 0.909 | 0.529 | 0.769 | 0.766 | 0.737 | 0.799 | 0.513 | 0.521 | 0.438 | 0.435 | 0.368 | 0.337 | 0.32 | 0.341 | 0.313 |
| NCI-H661 | 0.772 | 0.747 | 0.741 | 0.657 | 0.63 | 0.34 | 0.347 | 0.328 | 0.342 | 0.354 | 0.269 | 0.271 | 0.306 | 0.246 | 0.572 | 0.606 | 0.501 | 0.471 |
| NCI-H727 | 0.748 | 0.834 | 0.806 | 1.12 | 0.536 | 0.668 | 0.839 | 0.599 | 0.467 | 0.524 | 0.525 | 0.577 | 0.552 | 0.498 | 0.875 | 1.01 | 1.01 | 0.613 |
| NCI-H838 | 0.708 | 0.872 | 0.564 | 0.659 | 0.469 | 0.278 | 0.278 | 0.256 | 0.257 | 0.182 | 0.622 | 0.633 | 0.52 | 0.335 | 0.46 | 0.45 | 0.435 | 0.437 |
| NCI-H1355 | 1.24 | 1.25 | 1.27 | 1.21 | 1.06 | 0.628 | 0.602 | 0.515 | 0.36 | 0.352 | 0.451 | 0.423 | 0.401 | 0.3 | 0.342 | 0.313 | 0.416 | 0.359 |
| NCI-H1437 | 0.428 | 0.733 | 0.483 | 0.474 | 0.185 | 0.437 | 0.424 | 0.398 | 0.377 | 0.241 | 0.322 | 0.259 | 0.296 | 0.297 | 0.553 | 0.598 | 0.645 | 0.495 |
| NCI-H1650 | 0.179 | 0.23 | 0.205 | 0.191 | 0.188 | 0.472 | 0.425 | 0.328 | 0.338 | 0.255 | 0.441 | 0.368 | 0.248 | 0.129 | 0.456 | 0.388 | 0.473 | 0.342 |
| NCI-H1651 | 1.03 | 0.998 | 0.946 | 0.921 | 0.743 | 0.685 | 0.76 | 0.416 | 0.522 | 0.338 | 0.386 | 0.396 | 0.311 | 0.251 | 0.622 | 0.726 | 0.65 | 0.499 |
